This is an account of results in patent US20030194377A1, “Therapeutic uses of BPI protein products in cystic fibrosis patients” (priority 1996, published 2003).

For assay [1], the system named is Pseudomonas aeruginosa strain isolated from a sputum sample from a CF patient. Kind of assay: Dade MicroScan gram-negative panels supplemented with rBPI21. It is filed as cell-based. The note with it: for change of antibiotic MIC: in combination with rBPI21 formulated with 0.2% poloxamer 403, versus poloxamer 188 formulation; for susceptibility of the strain to combination of rBPI21 and antibiotic: supplemented with 16 μg/mL rBPI21 formulated with 0.2% poloxamer 188; for change of susceptibility to antibiotic: in combination with rBPI21 formulated with 0.2% poloxamer 403.

The subject of another assay is autoantibodies to BPI. The note with it: adult CF patients, Zhao et al. 1996; cited from earlier work.
For a further assay, the system named is anti-BPI antibodies. Kind of assay: enzyme immunoassay of BPI antibody titers in plasma samples from cystic fibrosis patients. The assay is classed as binding, human. The note with it: 11 CF patient plasma samples, dilutions 1/100 to 1/12,800; protein coated as antigen. How it is done: Plasma samples from 11 cystic fibrosis (CF) patients were tested for the presence of anti-BPI antibodies as follows. BPI holoprotein (rBPI) or an N-terminal BPI protein product (rBPI21) were used as antigen sources in an enzyme immunoassay. The wells of Immulon 2 microtiter plates (Dynatech Laboratories Inc., Chantilly, Va.) were coated overnight at 2-8° C. with 50 uL of rBPI21 (0.5 μg/mL) or rBPI (1 μg/mL) diluted in phosphate buffered saline, pH 7.2 (PBS). Unbound BPI was removed and 200 μL of PBS containing 0.1% human serum albumin and 0.1% goat serum was added to all wells. After blocking the plates for 1 hour at room temperature, the wells were washed 3 times with 300 μL of wash buffer (PBS/0.5% Tween 20). Plasma samples were prepared as serial two-fold dilutions from 1/100 to 1/12,800. Plasma samples were diluted in triplicate with PBS containing 1% bovine serum albumin, 1% goat serum and 0.05% Tween 20 (PBS-BSA-GS/Tween). […] The absorbance at 405 nm (A405) was determined for all wells using a Vmax Plate Reader (Molecular Devices Corp., Menlo Park, Calif.).
The mean A405 for all samples were corrected for background by subtracting the mean A405 of wells receiving sample dilution buffer (no plasma) in the primary incubation step. […] An absorbance greater than 0.05 units was considered to be above background.

Turning to `O=C(O)c1cn(C2CC2)c2cc(N3CCNCC3)c(F)cc2c1=O` [ciprofloxacin], in assay [1], the “change of antibiotic MIC” value is listed as “further decreased the MICs”; the “susceptibility of the strain to combination of rBPI21 and antibiotic” value (“susceptibility of the strain” below) was “susceptible”. As for Augmentin, the “change of susceptibility to antibiotic” value in assay [1] is “increased susceptibity”. On the same count and under the same terms, the same measure for `CC1(C)S[C@@H]2[C@H](NC(=O)[C@H](NC(=O)N3CCNC3=O)c3ccccc3)C(=O)N2[C@H]1C(=O)O` [azlocillin]: “increased susceptibity”. For `NC[C@H]1O[C@H](O[C@H]2[C@H](O)[C@@H](O[C@H]3O[C@H](CO)[C@@H](O)[C@H](N)[C@H]3O)[C@H](N)C[C@@H]2N)[C@H](N)C[C@@H]1O` [tobramycin], the “susceptibility of the strain” value in assay [1] is given as “susceptible”. As for `CC1(C)S[C@@H]2[C@H](NC(=O)C(C(=O)O)c3ccccc3)C(=O)N2[C@H]1C(=O)O` (stereo partly shown) [carbenicilin], in assay [1], the “susceptibility of the strain” value is “susceptible”. Take sulfamethoxazole/trimethoprim: the “susceptibility of the strain” value in assay [1] is listed as “susceptible”. Turning to `CCN[C@@H]1C[C@H](N)[C@@H](O[C@H]2OC(CN)=CC[C@H]2N)[C@H](O)[C@H]1O[C@H]1OC[C@](C)(O)[C@H](NC)[C@H]1O` [netilmicin], in assay [1], the “change of susceptibility to antibiotic” value is “increased susceptibity”. The same measure, in the same setting: the same measure for `O=C(N[C@H](CO)[C@H](O)c1ccc([N+](=O)[O-])cc1)C(Cl)Cl` [chloramphenicol]: “increased susceptibity”. On to `C[C@H]1[C@H](NC(=O)/C(=N\OC(C)(C)C(=O)O)c2csc(N)n2)C(=O)N1S(=O)(=O)O` [aztreonam], for which, in assay [1], the “change of antibiotic MIC” value was “further decreased the MICs”; the “susceptibility of the strain” value is recorded as “susceptible”.

B1: BPI: bactericidal/permeability-increasing protein isolated from granules of polymorphonuclear leukocytes (protein, UniProt P17213 32-487, looked up)
Bactericidal …: VNPGVVVRISQKGLDYASQQGTAALQKELKRIKIPDYSDSFKIKHLGKGHYSFYSMDIREFQLPSSQISMVPNVGLKFSISNANIKISGKWKAQKRFLKMSGNFDLSIEGMSISADLKLGSNPTSGKPTITCSSCSSHINSVHVHISKSKVGWLIQLFHKKIESALRNKMNSQVCEKVTNSVSSELQPYFQTLPVMTKIDSVAGINYGLVAPPATTAETLDVQMKGEFYSENHHNPPPFAPPVMEFPAAHDRMVYLGLSDYFFNTAGLVYQEAGVLKMTLRDDMIPKESKFRLTTKFFGTFLPEVAKKFPNMKIQIHVSASTPPHLSVQPTGLTFYPAVDVQAFAVLPNSSLASLFLIGMHTTGSMEVSAESNRLVGELKLDRLLLELKHSNIGPFPVELLQDIMNYIVPILVLPRVNEKLQKGFPLPTPARVQLYNVVLQPHQNFLLFGADVVYK
As for B1, the “sera with autoantibodies to BPI” value in the assay with autoantibodies to BPI is recorded as 60/66.

B2: rBPI: recombinant BPI holoprotein (protein, UniProt P17213 32-487, looked up)
Bactericidal …: VNPGVVVRISQKGLDYASQQGTAALQKELKRIKIPDYSDSFKIKHLGKGHYSFYSMDIREFQLPSSQISMVPNVGLKFSISNANIKISGKWKAQKRFLKMSGNFDLSIEGMSISADLKLGSNPTSGKPTITCSSCSSHINSVHVHISKSKVGWLIQLFHKKIESALRNKMNSQVCEKVTNSVSSELQPYFQTLPVMTKIDSVAGINYGLVAPPATTAETLDVQMKGEFYSENHHNPPPFAPPVMEFPAAHDRMVYLGLSDYFFNTAGLVYQEAGVLKMTLRDDMIPKESKFRLTTKFFGTFLPEVAKKFPNMKIQIHVSASTPPHLSVQPTGLTFYPAVDVQAFAVLPNSSLASLFLIGMHTTGSMEVSAESNRLVGELKLDRLLLELKHSNIGPFPVELLQDIMNYIVPILVLPRVNEKLQKGFPLPTPARVQLYNVVLQPHQNFLLFGADVVYK
On to B2, for which the “plasma samples with detectable immune response (A405>0.05)” value with anti-BPI antibodies was 7/11.
